Test results: ChEMBL document CHEMBL1201862, “PubChem BioAssay data set” (2004)
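Five concentrations, 48 hours, 96-well plates. The concentration for 50% growth inhibition is given as GI50.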 Active and inactive are the calls of the source. No stated cut-off is given here; in the data, active = GI50 up to about 1.1 µM and inactive = higher.

How the values were obtained:
Test in all cases: NCI anticancer screen, dose series, 48 h
[1] = system: 786-0
[2] = system: BT-549
[3] = system: CCRF-CEM
[4] = system: EKVX
[5] = system: HCC 2998
[6] = system: HL-60
[7] = system: K562
[8] = system: KM12
[9] = system: MDA-MB-231
[10] = system: MDA-N
[11] = system: MOLT-4
[12] = system: Malme-3M
[13] = system: NCI-H226
[14] = system: OVCAR-5
[15] = system: SF-268
[16] = system: SF-539
[17] = system: SN12C
[18] = system: SNB-75
[19] = system: UACC-257

## CN(C)CCNc1ccc2c(=O)n(CCN(C)C)c(=O)n3c4ccc(O)cc4c(=O)c1c23
[1]
  GI50: < 0.01 µM (active)
[2]
  GI50: 0.292 µM (active)
[3]
  GI50: < 0.01 µM (active)
[4]
  GI50: 0.183 µM (active)
[5]
  GI50: < 0.01 µM (active)
[6]
  GI50: < 0.01 µM (active)
[7]
  GI50: < 0.01 µM (active)
[8]
  GI50: 0.122 µM (active)
[9]
  GI50: < 0.0395 µM (active)
[10]
  GI50: 0.0356 µM (active)
[11]
  GI50: < 0.01 µM (active)
[12]
  GI50: 0.0569 µM (active)
[13]
  GI50: < 0.01 µM (active)
[14]
  GI50: 0.0775 µM (active)
[15]
  GI50: < 0.0134 µM (active)
[16]
  GI50: < 0.01 µM (active)
[17]
  GI50: 0.0103 µM (active)
[18]
  GI50: 0.029 µM (active)
[19]
  GI50: 0.149 µM (active)

## CCN(CC)CCCn1c(=O)c2ccccc2n2c3c(=O)n(C)c(=O)n(C)c3nc12
[1]
  GI50: 2.21 µM (inactive)
[2]
  GI50: 2.47 µM (inactive)
[3]
  GI50: 3.03 µM (inactive)
[4]
  GI50: 15 µM (inactive)
[5]
  GI50: 8.95 µM (inactive)
[6]
  GI50: 1.58 µM (inactive)
[7]
  GI50: 6.79 µM (inactive)
[8]
  GI50: 4.63 µM (inactive)
[9]
  GI50: 13.8 µM (inactive)
[10]
  GI50: 14.2 µM (inactive)
[11]
  GI50: 0.619 µM (active)
[12]
  GI50: 8.99 µM (inactive)
[13]
  GI50: 2.7 µM (inactive)
[14]
  GI50: 12.1 µM (inactive)
[15]
  GI50: 5.9 µM (inactive)
[16]
  GI50: 7.73 µM (inactive)
[17]
  GI50: 2.85 µM (inactive)
[18]
  GI50: 5.92 µM (inactive)
[19]
  GI50: 10.9 µM (inactive)

## CCC1(CC)C(=O)NN(C(=O)c2ccccc2)C1=O
[1]
  GI50: > 100 µM (inactive)
[2]
  GI50: > 100 µM (inactive)
[3]
  GI50: 95.7 µM (inactive)
[4]
  GI50: > 100 µM (inactive)
[5]
  GI50: > 100 µM (inactive)
[6]
  GI50: > 100 µM (inactive)
[7]
  GI50: > 100 µM (inactive)
[8]
  GI50: 6.49 µM (inactive)
[9]
  GI50: > 100 µM (inactive)
[10]
  GI50: > 100 µM (inactive)
[11]
  GI50: > 100 µM (inactive)
[12]
  GI50: > 100 µM (inactive)
[13]
  GI50: > 100 µM (inactive)
[14]
  GI50: > 100 µM (inactive)
[15]
  GI50: > 100 µM (inactive)
[17]
  GI50: > 100 µM (inactive)
[18]
  GI50: 49.4 µM (inactive)
[19]
  GI50: > 100 µM (inactive)

## C=CCN(CC=C)Cn1c(=S)sc2ccccc21
[1]
  GI50: > 100 µM (inactive)
[2]
  GI50: > 100 µM (inactive)
[3]
  GI50: 22.2 µM (inactive)
[4]
  GI50: > 100 µM (inactive)
[5]
  GI50: > 100 µM (inactive)
[6]
  GI50: 16.5 µM (inactive)
[8]
  GI50: > 100 µM (inactive)
[9]
  GI50: 54.3 µM (inactive)
[10]
  GI50: > 100 µM (inactive)
[11]
  GI50: 94.8 µM (inactive)
[14]
  GI50: > 100 µM (inactive)
[15]
  GI50: > 100 µM (inactive)
[16]
  GI50: 55.6 µM (inactive)
[17]
  GI50: > 100 µM (inactive)
[18]
  GI50: > 100 µM (inactive)
[19]
  GI50: > 100 µM (inactive)

## CCOc1snc(C(Cl)(Cl)Cl)c1Cl
[1]
  GI50: 31.7 µM (inactive)
[2]
  GI50: 10.7 µM (inactive)
[3]
  GI50: 17.3 µM (inactive)
[4]
  GI50: 15.8 µM (inactive)
[5]
  GI50: 22.4 µM (inactive)
[6]
  GI50: 13.2 µM (inactive)
[7]
  GI50: 9.33 µM (inactive)
[8]
  GI50: 19.8 µM (inactive)
[9]
  GI50: 22.4 µM (inactive)
[10]
  GI50: 21.9 µM (inactive)
[11]
  GI50: 13.3 µM (inactive)
[12]
  GI50: 22.2 µM (inactive)
[13]
  GI50: 9.33 µM (inactive)
[14]
  GI50: > 100 µM (inactive)
[15]
  GI50: 17.7 µM (inactive)
[16]
  GI50: 60.5 µM (inactive)
[17]
  GI50: 23.8 µM (inactive)
[18]
  GI50: 17.7 µM (inactive)
[19]
  GI50: 14.3 µM (inactive)

## CC(CO)(CO)N1C(=O)C2C3c4ccccc4C(c4ccccc43)C2C1=O (stereo not drawn)
[1]
  GI50: > 100 µM (inactive)
[2]
  GI50: 80.9 µM (inactive)
[3]
  GI50: > 100 µM (inactive)
[5]
  GI50: > 100 µM (inactive)
[6]
  GI50: > 100 µM (inactive)
[7]
  GI50: > 100 µM (inactive)
[8]
  GI50: > 100 µM (inactive)
[9]
  GI50: 45.8 µM (inactive)
[10]
  GI50: > 100 µM (inactive)
[11]
  GI50: > 100 µM (inactive)
[12]
  GI50: > 100 µM (inactive)
[13]
  GI50: > 100 µM (inactive)
[14]
  GI50: > 100 µM (inactive)
[15]
  GI50: > 100 µM (inactive)
[16]
  GI50: > 100 µM (inactive)
[17]
  GI50: > 100 µM (inactive)
[18]
  GI50: 25.4 µM (inactive)
[19]
  GI50: > 100 µM (inactive)

## COC(=O)C1=CN(C2CCCCC2)C2(c3ccccc3)c3ccccc3C(=O)OC(=O)C12 (stereo not drawn)
[1]
  GI50: > 100 µM (inactive)
[2]
  GI50: > 100 µM (inactive)
[3]
  GI50: > 100 µM (inactive)
[4]
  GI50: > 100 µM (inactive)
[5]
  GI50: 27 µM (inactive)
[6]
  GI50: 15.2 µM (inactive)
[7]
  GI50: 20.1 µM (inactive)
[8]
  GI50: > 100 µM (inactive)
[9]
  GI50: 34.7 µM (inactive)
[10]
  GI50: 58.5 µM (inactive)
[11]
  GI50: 10.6 µM (inactive)
[12]
  GI50: > 100 µM (inactive)
[13]
  GI50: > 100 µM (inactive)
[14]
  GI50: > 100 µM (inactive)
[15]
  GI50: > 100 µM (inactive)
[16]
  GI50: > 100 µM (inactive)
[17]
  GI50: > 100 µM (inactive)
[18]
  GI50: > 100 µM (inactive)
[19]
  GI50: 49.2 µM (inactive)
